Patent publication US20250325527A1, “KIF18A INHIBITION FOR TREATMENT OF CANCER” (AMGEN INC., priority 2022, published 2025)

How the values were obtained:
HCC1806 cells [1] = assay: 5-day MTT endpoint viability assay, HCC1806
Description: The following day, drugs were added as indicated and cells were cultured for 5 days. […] 100 μL 10% SDS, 0.01M HCl solution was then added to each well to dissolve the formazan crystals. Absorbance was measured with a spectrophotometer at 570 nm. % Viability=(Signal[sample]−Signal[DMN])/(Signal [DMSO]−Signal [DMN])×100 unless specifically noted. % Toxicity=100%−Viability. % Viability rescue=(Signal [sample, KIF18Ai]−Signal[WT, KIF18Ai])/(Signal[WT, DMSO]−Signal [WT, KIF18Ai])×100. Drug titration curves were derived using the equation for “[Inhibitor] vs. response−Variable slope (four-parameter)” in GraphPad Prism 7 for Mac OS X (GraphPad Software, La Jolla, USA).

[2] = tested on: breast and ovarian cancer cell lines (DNA barcoded human cancer cell lines); assay: PRISM screen, 5-day cell growth assay of pooled DNA barcoded cancer cell lines; format: cell-based; conditions: TP53 MUT cell lines, 5 days
Description: FIG. 1 is a series of scatter plots of pooled barcoded cancer cell lines treated in a 5-day cell growth assay with DMSO or KIF18Ai C9 (8-point concentration range), relative abundance of unique cell line barcodes was measured to estimate cell viability. KIF18Ai C9 AUC values versus CIN features (whole genome doubling (WGD), ploidy, aneuploidy score (AS)) plus TP53 status in breast and ovarian cancer cell lines (n=58). Scatter plots show KIF18Ai C9 AUC versus CIN features plus TP53 status with mean AUC indicated for each group. Colored cell lines overlap with KIF18Ai C9 sensitivity in nonbarcoded screens. Dotted line indicates AUC value of 0.65. ** p=0.0037, *** p=0.0004 by unpaired t-test.
To investigate the anti-proliferative effects of KIF18A inhibitors, a PRISM (profiling relative inhibition simultaneously in mixtures) screen was conducted on a panel of DNA barcoded human cancer cell lines. Pooled cancer cell lines were treated with DMSO or increasing concentrations of KIF18A inhibitor, Compound C9, for 5 days, and then cell viability was determined by measuring the abundance for each unique DNA barcode. We divided the cell lines by CIN features (WGD, ploidy, aneuploidy score) and further subdivided them based on TP53 status. In the TP53^MUT cancer cell lines, we observed a significant enrichment for KIF18A inhibitor sensitivity in cell lines that were WGD+ with >2.1 ploidy (55%, 12 of 22 sensitive) relative to WGD− with ≤2.1 ploidy (21%, 4 of 19 sensitive) (p=0.0004).

HCC1806 cells [3] = assay: mitotic duration and fate (slippage) by live-cell timelapse imaging of cells arrested with DMN; format: cell-based
Description: To define the capacity of KIF18Ai-resistant HCC1806 clonal lines to maintain the mitotic state, we arrested cells indefinitely in mitosis with the Eg5 inhibitor dimethylenastron (DMN) which causes spindle collapse and chronic SAC activation^28,29. We then monitored mitotic slippage by live-cell timelapse imaging.
Fluorescent cell lines were seeded into either 4-chamber, 35-mm glass-bottom culture dishes (Greiner), 4-well chamber slides (Ibidi), or 8-well chamber slides (Ibidi). The day of the experiment, cells were transferred to CO2-independent base medium (ThermoFischer) with the appropriate additives for each cell line and maintained at 37° C. in an environmental control station. Long-term time-lapse imaging was performed using a Deltavision Elite system (GE Healthcare) controlling a Scientific CMOS camera (pco.edge 5.5.). Images were acquired with an Olympus 40×1.4 NA oil objective. For general mitotic phenotypes, cells were treated as indicated, then images were captured every 5 min in 9×3 μm z-sections in respective fluorescent channels and by differential inference contrast. For CyclinB1-EYFP experiments, cells were treated as indicated, then images were captured every 2.5 min in 9×3 μm z-sections in respective fluorescent channels and by differential inference contrast. Phenotypic evaluation and intensity measurements were taken from maximum intensity projected 2D time-lapse images. Mitotic duration was calculated as the time taken from nuclear envelope breakdown to the onset of anaphase. Metaphase to anaphase duration was calculated as the time from the appearance of the last, uninterrupted metaphase plate to the onset of anaphase. Analysis of Cyclin B1-EYFP mitotic intensity was measured from NEBD through 30 min past anaphase using FIJI. Intensity traces were manually aligned to the metaphase to anaphase inflection point, then normalized in R. If traces never inflected, they were aligned to 30 min past NEBD.

[4] = tested on: panel of sensitive and insensitive cell lines (RPE1, MCF10A, HCT116, DLD1, MCF7, MDA-MB-157, HCC1806, HeLa, OVCAR-3, OVCAR-8); assay: 5-day MTT endpoint viability assay, cell line panel; format: cell-based; conditions: sensitive cell lines co-treated with KIF18Ai and low doses of Reversine (30 nM, FIG. 9E)
Text: To investigate the determinants of KIF18A dependency in cancer, we used AM-1882, a highly specific small molecule KIF18A inhibitor (KIF18Ai) developed by Amgen Inc^21,23. Treatment with KIF18Ai causes stable binding of the KIF18A motor domain to microtubules^23, leading to the relocation of KIF18A in mitosis from kinetochores to spindle poles in all the cell lines tested (FIG. 8a and FIG. 15a). This mis-localization phenocopies the effect of KIF18A loss^21, likely by blocking KIF18A-induced stabilization of microtubule plus ends^16. We examined the effect of KIF18Ai on cell viability using a 5-day endpoint assay performed with non-transformed cells (RPE1 and MCF10A) and a panel of colon (HCT116, DLD1), breast (MCF7, MDA-MB-157, HCC1806), and ovarian (HeLa, OVCAR-3, OVCAR-8) cancer cell lines (FIG. 8b,c and FIG. 15b).

## O=C1NC(=NCc2cccs2)S/C1=C\c1ccc2ncccc2c1 [RO-3306]
HCC1806 cells [1]; sub-saturating concentrations of RO-3306
  rescue of viability in KIF18Ai-treated cells: robust rescue of viability

## CC(C)(C)NS(=O)(=O)c1cccc(NC(=O)c2ccc(S(=O)(=O)NC(C)(C)C)cc2N2CCC3(CC2)CC3)c1 [Compound C9, 4-(N-(tert-butyl)sulfamoyl)-N-(3-(N-(tert-butyl)sulfamoyl)phenyl)-2-(6-azaspiro[2.5]octan-6-yl)benzamide]
[2]; WGD+ with >2.1 ploidy (12 of 22 sensitive)
  cell lines sensitive to KIF18A inhibitor: 55%
[2]; WGD− with ≤2.1 ploidy (4 of 19 sensitive)
  cell lines sensitive to KIF18A inhibitor: 21%
[2]; aneuploidy score >8 (16 of 34 sensitive)
  cell lines sensitive to KIF18A inhibitor: 47%
[2]; aneuploidy score ≤8 (0 of 7 sensitive)
  cell lines sensitive to KIF18A inhibitor: 0%

## CC1(C)CC(=O)C2=C(C1)NC(=S)NC2c1cccc(O)c1 (stereo not drawn) [DMN, dimethylenastron]
HCC1806 cells [3]; Cyclin B1 knockout HCC1806
  slippage rate: 93%
  time spent in mitosis: 11 h
HCC1806 cells [3]; HSET knockout HCC1806
  rate of mitotic slippage: 27%
  time in mitosis: 19 h
HCC1806 cells [3]; WT HCC1806
  cell death: 75%
  mitotic slippage: 25%
  time in mitosis (average): 25 h
HCC1806 cells [3]; hypomorphic MAD1 HCC1806
  rate of mitotic slippage: 95%
  time in mitosis: 23 h

## c1nc2nc(Nc3ccc(N4CCOCC4)cc3)nc(NC3CCCCC3)c2[nH]1 [Reversine]
[4]
  rescue of KIF18Ai toxicity: rescued KIF18Ai toxicity
HCC1806 cells [3]; SAC function abolished with Reversine, compared with DMN arrest
  time to exit mitosis (all cells): less than an hour
HCC1806 cells [1]; higher concentrations of Reversine
  effect on cells: toxic to cells
HCC1806 cells [1]; low doses of Reversine, WT and UBE2S overexpressing HCC1806 treated with KIF18Ai
  rescue of KIF18Ai toxicity: potent rescue of KIF18Ai toxicity
